Patent US20130111611A1, “METHOD TO MEASURE THE METABOLIC RATE OR RATE OF GLUCOSE CONSUMPTION OF CELLS OR TISSUES WITH HIGH SPATIOTEMPORAL RESOLUTION USING A GLUCOSE NANOSENSOR” (CARNEGIE, INSTITUTION OF WASHINGTON, priority 2010, published 2013)

System: cultured astrocytes
Assay: Intracellular glucose and glycolytic rate in cultured astrocytes with FRET glucose nanosensor (ITM)
Type: cell-based, mouse
Conditions: for effect on the intracellular concentration of glucose: cultured astrocytes exposed to the compound, FIG. 3a; for glycolytic rate obtained with the GLUT inhibitor: cultured astrocytes, n=20 cells in three paired experiments, not significantly different between inhibitors
Excerpt: In another embodiment, the disruption of the glucose steady-state can be attained by blocking the glucose transporter GLUT with a suitable inhibitor (ITM).
Independent of the embodiment of the method used to disrupt the steady-state, the rate of glycolysis is estimated by fitting a monoexponential function to the time course of decay. In one embodiment, the metabolic rate is computed from the rate of glucose concentration decrease at the point when the intracellular concentration becomes equal to the extracellular concentration, for instance at 0.3 mM (interrupted line in FIG. 2b). In a second embodiment, in the presence of a GLUT blocker, the metabolic rate is computed from the rate of glucose concentration decrease at any glucose concentration.
Animals used were mixed F1 male mice (C57BU6J×CBA/J), kept in an animal room under SPF conditions at a room temperature of 20±2° C., in a 12/12 h light/dark cycle with free access to food and water. All experiments were approved by the Centro de Estudios Científicos Animal Care and Use Committee. Mixed cortical cultures of neuronal and glial cells were prepared from 1-3 day-old neonatal mice as described in Loaiza et al.^19, except that N1-N2/MEM was replaced by B27-supplemented Neurobasal medium (Gibco). Cultures were maintained at 37° C. in a humidified atmosphere of 5% CO2. At days 5-7, cultures in 35 mm dishes were transfected with 5 μg plasmid DNA using Lipofectamine 2000 (Gibco) or alternatively, exposed to 5×10^6 PFU of adenoviral vector.
Experiments were carried out at room temperature (22-25° C.). Cultured cells were imaged in HEPES-buffered saline containing (in mM): 136 NaCl, 3 KCl, 1.25 CaCl2, 1.25 MgSO4, 1-2 glucose, 2 sodium lactate, 10 HEPES, pH 7.4 or in 95% O2/5% CO2-gassed buffer of the following composition (in mM): 112 NaCl, 3 KCl, 1.25 CaCl2, 1.25 MgCl2, 1-2 glucose, 2 sodium lactate, 10 HEPES, 24 NaHCO3, pH 7.4. Brain slices were superfused with a 95% O2/5% CO2-gassed buffer containing (in mM): 126 NaCl, 3 KCl, 1.25 NaH2PO4, 1.25 CaCl2, 1.25 MgCl2, 2-3 glucose, 1 sodium lactate, 26 NaHCO3, pH 7.4. When using higher K^+ concentrations, NaCl was adjusted to maintain isotonicity. Cultures and slices were imaged with an Olympus IX70 inverted microscope equipped with a 40× oil-immersion objective, a Cairn monochromator with Optosplit (Faversham, UK), and a Hamamatsu Orca camera (Hamamatsu City, Japan) controlled by Kinetics software. For FRET measurements, CFP was excited at 430 nm for 400 ms. Because of the very high FRET efficiency of FLII12 Pglu600μ ? , which results in low CFP signal^7, we opted for not using the CFP signal in our protocol. Instead, YFP/citrine was excited for 50 ms, which provided a sugar-insensitive denominator for the FRET ratio. […]

| SMILES | effect on the intracellular concentration of glucose | glycolytic rate obtained with the GLUT inhibitor |
| --- | --- | --- |
| C=C1[C@@H](C)[C@H]2[C@H](Cc3ccccc3)NC(=O)[C@]23[C@H](OC(C)=O)/C=C/[C@@](C)(O)C(=O)[C@@H](C)C/C=C/[C@H]3[C@@H]1O [cytochalasin D] | did not affect the concentration of glucose | – |
| C=C1[C@@H](C)[C@H]2[C@H](Cc3ccccc3)NC(=O)[C@]23OC(=O)/C=C/[C@H](O)CCC[C@@H](C)C/C=C/[C@H]3[C@@H]1O [cytochalasin B] | linear decrease in the concentration of glucose | 1.8 ± 0.3 µM/s |
| O=C(CCc1ccc(O)cc1)c1c(O)cc(O)cc1O [Phloretin] | – | 1.7 ± 0.3 µM/s |
